In patent publication US20020119939A1, “Stable aqueous deoxyfructosazine solution” (priority 2000, published 2002):

Assay: study of the stability of aqueous deoxyfructosazine solutions (HPLC)
Assay type: physicochemical
Details: 1 mg/ml solution
Procedure: The study of the stability of aqueous deoxyfructosazine solutions was carried out according to the following protocol:
A deoxyfructosazine solution (1 mg/ml) is prepared using an aqueous 0.05M phosphoric acid solution. Samples of the solution are adjusted to pH 2, 3, 4, 5, 6, 7, 8 and 9 by addition of sodium hydroxide. The solutions thus obtained are stored in glass bottles protected from the light, at 4° C. (control solution), 25° C., 45° C. and 60° C. After 2, 7 and 15 days, the samples are diluted 5-fold with a 20 mM, pH 7 phosphate buffer and the stability is examined by high pressure liquid chromatography (HPLC).

% of decomposition product calculated relative to the total area of the peaks, Product A (pH 2, stored 15 days at 45° C.): 1.52%
% of decomposition product calculated relative to the total area of the peaks, Product A (pH 2, stored 15 days at 60° C.): 6.94%
% of decomposition product calculated relative to the total area of the peaks, Product B (pH 2, stored 15 days at 60° C.): 0.02%
% of decomposition product calculated relative to the total area of the peaks, Product A (pH 3, stored 15 days at 45° C.): 0.16%
% of decomposition product calculated relative to the total area of the peaks, Product A (pH 3, stored 15 days at 60° C.): 0.87%
% of decomposition product calculated relative to the total area of the peaks, Product B (pH 3, stored 15 days at 60° C.): 0.03%
% of decomposition product calculated relative to the total area of the peaks, Product A (pH 4, stored 15 days at 60° C.): 0.07%
% of decomposition product calculated relative to the total area of the peaks, Product B (pH 4, stored 15 days at 60° C.): 0.05%
% of decomposition product calculated relative to the total area of the peaks, Product B (pH 5, stored 15 days at 45° C.): 0.03%
% of decomposition product calculated relative to the total area of the peaks, Product B (pH 5, stored 15 days at 60° C.): 0.24%
% of decomposition product calculated relative to the total area of the peaks, Product B (pH 6, stored 15 days at 45° C.): 0.21%
% of decomposition product calculated relative to the total area of the peaks, Product B (pH 6, stored 15 days at 60° C.): 0.71%
% of decomposition product calculated relative to the total area of the peaks, Product B (pH 7, stored 15 days at 45° C.): 0.69%
% of decomposition product calculated relative to the total area of the peaks, Product B (pH 7, stored 15 days at 60° C.): 13.9%
% of decomposition product calculated relative to the total area of the peaks, Product B (pH 8, stored 15 days at 45° C.): 0.95%
% of decomposition product calculated relative to the total area of the peaks, Product B (pH 8, stored 15 days at 60° C.): 37.9%
% of decomposition product calculated relative to the total area of the peaks, Product B (pH 9, stored 15 days at 45° C.): 1.92%
% of decomposition product calculated relative to the total area of the peaks, Product B (pH 9, stored 15 days at 60° C.): 37.7%
Compound: OC[C@@H](O)[C@@H](O)[C@H](O)c1cnc(C[C@H](O)[C@H](O)CO)cn1 [deoxyfructosazine, 2-((1R, 2S, 3R)1,2,3,4-tetrahydroxybutyl)-5-((2′S, 3′R)2′, 3′, 4′-trihydroxy-butylpyrazine)]
